The results in this text go back to US3968101A, “8-Substituted cyclic nucleotides by free radical alkylation and acylation” (ICN Pharmaceuticals, Inc., priority 1974, dated 1976).

Where a name gives a salt, the structure may show the parent alone.

Test [1] concerns cGMP-dependent protein kinase. Kind of test: Activation of cGMP-dependent protein kinase isolated from lobster tail. The class given is biochemical. The conditions noted are these: for Protein Kinase, Ka ' Lobster: ratio of Ka of cGMP to Ka of test compound, lobster tail cGMP-dependent kinase; for ability to activate the cGMP-dependent protein kinase (in words): lobster tail kinase; for specificity between cGMP-dependent and cAMP-dependent protein kinase (in words): lobster tail cGMP-dependent versus bovine brain cAMP-dependent kinase. The source says:
The new 8-substituted purine cyclic nucleotides were examined for their ability to stimulate both a cAMP-dependent protein kinase isolated from beef brain and a cGMP-dependent protein kinase isolated from lobster tail (see Table II). […]. Acad. Sci. USA 64, 1349, Kuo et al, 1971, J. Biol. Chem. 246,7159) to be mediated by its activation of a protein kinase.
The Ka of cAMP for the cAMP-dependent protein kinase is about the same (see footnote a, Table II) as the Ka of cGMP for the cGMP-dependent protein kinase. Comparison of the Ka ' values (the ratio of Ka of the dependent cyclic nucleotide to the Ka of the test compound) is, therefore, an accurate guide to the type of kinase stimulation seen at a given cyclic nucleotide concentration.
a Ka ' = The ratio of Ka of the dependent cyclic nucleotide (cAMP for bovine brain and cGMP for lobster tail) to the Ka of the test compound. […]

Test [2] deals with cAMP-dependent protein kinase. As to the kind of experiment: Activation of cAMP-dependent protein kinase isolated from beef brain. Conditions: for Protein Kinase, Ka ' Bovine: ratio of Ka of cAMP to Ka of test compound, bovine brain cAMP-dependent kinase; for activation of the cAMP-dependent protein kinase (in words): bovine brain kinase. The class given is biochemical, bovine. The source says:
The new 8-substituted purine cyclic nucleotides were examined for their ability to stimulate both a cAMP-dependent protein kinase isolated from beef brain and a cGMP-dependent protein kinase isolated from lobster tail (see Table II).
a Ka ' = The ratio of Ka of the dependent cyclic nucleotide (cAMP for bovine brain and cGMP for lobster tail) to the Ka of the test compound.

The test system of test [3] is cyclic nucleotide phosphodiesterase. Kind of test: Susceptibility to hydrolysis by rabbit kidney cyclic nucleotide phosphodiesterase. The class given is biochemical. The conditions noted are these: rabbit kidney enzyme preparation; times the rate of cAMP. The text has this:
All compounds were examined for their susceptibility to hydrolysis by cyclic nucleotide phosphodiesterase. Both cGMP and cIMP were hydrolyzed at approximately one-half the rate of cAMP by a rabbit kidney enzyme preparation generally prepared in the manner described below for rabbit lung enzyme. The new 8-substituted derivatives were not substrates (rate of hydrolysis<0.05 that of the rate of cAMP hydrolysis) within the limits of detection of our assay, with the sole exception of 8-(1-hydroxybutyl)-cGMP (12), which was hydrolyzed at a rate 0.18 times the rate of hydrolysis of cAMP. This finding is in agreement with the general conclusion that 8-substitution of a purine 3',5'-cyclic ribonucleotide greatly reduces the ability of the resulting derivative to serve as a substrate for cyclic nucleotide phosphodiesterase.

In test [4] the target is cyclic nucleotide phosphodiesterase. As to the kind of experiment: Inhibition of cAMP hydrolysis by rabbit lung cyclic nucleotide phosphodiesterase. Type of test: biochemical. The conditions noted are these: rabbit lung enzyme; 50% inhibition of cleavage of cAMP, cAMP = 1.6 × 10^-7 M; read-out: Phosphodiesterase Inhibition, I50 Lung. The source says: (§1) Homogenates of rabbit lung and beef heart are made in sucrose-Tris-magnesium buffer and are subjected to centrifugation at low speed to remove nuclei and cell debris. […] The precipitation which forms at 0-50% saturation is collected by centrifugation at 20,000 × g, dissolved in Tris-magnesium buffer, and dialyzed overnight against the same buffer.

For test [5] the target is unchanged. Kind of test: Inhibition of cAMP hydrolysis by beef heart cyclic nucleotide phosphodiesterase. The class given is biochemical. Conditions: beef heart enzyme; 50% inhibition of cleavage of cAMP, cAMP = 1.6 × 10^-7 M; read-out: Phosphodiesterase Inhibition, I50 Heart.
Description: as §1

Regarding `Nc1nc2c(ncn2[C@@H]2O[C@@H]3COP(=O)(O)O[C@H]3[C@H]2O)c(=O)[nH]1` [Compound 1, guanosine 3',5'-cyclic phosphate, reference compound], in test [1], the “Protein Kinase, Ka ' Lobster” value stood at 1.0. The “Protein Kinase, Ka ' Bovine” value in test [2] is listed as 0.023. Further, the “rate of hydrolysis relative to the rate of cAMP hydrolysis” value in test [3] was “approximately one-half”.
In the case of `Cc1nc2c(=O)[nH]c(N)nc2n1[C@@H]1O[C@@H]2COP(=O)(O)O[C@H]2[C@H]1O` [Compound 2, 8-Methylguanosine 3',5'-Cyclic Phosphate], in test [1], the “Protein Kinase, Ka ' Lobster” value is on record as 0.066. For the same compound, the “Protein Kinase, Ka ' Bovine” value in test [2] amounted to 0.015. The IC50 is 400 µM in test [4] and 200 µM in test [5].
On to `CC(C)c1nc2c(=O)[nH]c(N)nc2n1[C@@H]1O[C@@H]2COP(=O)(O)O[C@H]2[C@H]1O` [Compound 3, 8-Isopropylguanosine 3',5'-Cyclic Phosphate], for which, in test [1], the “Protein Kinase, Ka ' Lobster” value came out at 0.70. For the same compound, the “Protein Kinase, Ka ' Bovine” value in test [2] is given as less than 0.001. The results for the IC50 in test [4] and in test [5] were 330 µM and 100 µM, respectively.
For `Nc1nc2c(nc(Cc3ccccc3)n2[C@@H]2O[C@@H]3COP(=O)(O)O[C@H]3[C@H]2O)c(=O)[nH]1` [Compound 4, 8-Benzylguanosine 3',5'-Cyclic Phosphate] the same measures were 0.10, less than 0.001, 130 µM and 140 µM.
On to `CC(C)(C)Cc1nc2c(=O)[nH]c(N)nc2n1[C@@H]1O[C@@H]2COP(=O)(O)O[C@H]2[C@H]1O` [Compound 5, 8-Neopentylguanosine 3',5'-Cyclic Phosphate], for which the “Protein Kinase, Ka ' Lobster” value in test [1] is 0.16. Further, the “Protein Kinase, Ka ' Bovine” value in test [2] is less than 0.001. The IC50 in test [4] was 70 µM; in test [5] it was 100 µM.
For `CC(=O)c1nc2c(=O)[nH]c(N)nc2n1[C@@H]1O[C@@H]2COP(=O)(O)O[C@H]2[C@H]1O` [Compound 6, 8-Acetylguanosine 3',5' -Cyclic Phosphate] the same measures were 0.56, less than 0.001, 70 µM and 170 µM.
For `CCCC(=O)c1nc2c(=O)[nH]c(N)nc2n1[C@@H]1O[C@@H]2COP(=O)(O)O[C@H]2[C@H]1O` [Compound 7, 8-Butyrylguanosine 3',,5' -cyclic phosphate] the same measures were 0.20, 0.064, 70 µM and 90 µM.
Regarding `CC(C)C(=O)c1nc2c(=O)[nH]c(N)nc2n1[C@@H]1O[C@@H]2COP(=O)(O)O[C@H]2[C@H]1O` [Compound 8, 8-Isobutyrylguanosine 3',5'-Cyclic Phosphate Ammonium Salt], the “Protein Kinase, Ka ' Lobster” value in test [1] was found to be 0.13. Also, the “Protein Kinase, Ka ' Bovine” value in test [2] was less than 0.01. Also, the IC50 in test [5] amounted to 11 µM.
The matching figures for `Nc1nc2c(nc(C(=O)c3ccccc3)n2[C@@H]2O[C@@H]3COP(=O)(O)O[C@H]3[C@H]2O)c(=O)[nH]1` [Compound 9, 8-Benzoylguanosine 3',5'-cyclic phosphate]: 0.68, less than 0.005 and 50 µM.
As for `NC(=O)c1nc2c(=O)[nH]c(N)nc2n1[C@@H]1O[C@@H]2COP(=O)(O)O[C@H]2[C@H]1O` [Compound 10, 8-Carbamoylguanosine 3',5'-Cyclic Phosphate], in test [1], the “ability to activate the cGMP-dependent protein kinase (in words)” value (shortened to “ability”) is reported as “superior to cGMP” and the “Protein Kinase, Ka ' Lobster” value came to 1.5. Further, the “Protein Kinase, Ka ' Bovine” value in test [2] was less than 0.001. For the same compound, the IC50 in test [4] turned out to be 400 µM. In addition, the IC50 in test [5] amounted to 100 µM.
For `CC(O)c1nc2c(=O)[nH]c(N)nc2n1[C@@H]1O[C@@H]2COP(=O)(O)O[C@H]2[C@H]1O` (stereo partly drawn) [Compound 11, 8-(1-Hydroxyethyl)guanosine 3',5'-Cyclic Phosphate] the same measures were “superior to cGMP”, 1.8, less than 0.01, 400 µM and 170 µM.
For `CC(C)C(O)c1nc2c(=O)[nH]c(N)nc2n1[C@@H]1O[C@@H]2COP(=O)(O)O[C@H]2[C@H]1O` (stereo partly drawn) [Compound 13, 8-(1-Hydroxy-2-methylpropyl)guanosine 3',5'-Cyclic Phosphate], the “Protein Kinase, Ka ' Lobster” value in test [1] was found to be 0.72. Moreover, the “Protein Kinase, Ka ' Bovine” value in test [2] is less than 0.001. In addition, the results for the IC50 in test [4] and in test [5] were 180 µM and 38 µM, respectively.
`Nc1nc2c(nc(C(O)c3ccccc3)n2[C@@H]2O[C@@H]3COP(=O)(O)O[C@H]3[C@H]2O)c(=O)[nH]1` (stereo partly drawn) [Compound 14, 8-(α-Hydroxybenzyl)guanosine 3',5'-Cyclic Phosphate]: in test [1], the “ability” value is “superior to cGMP” and the “Protein Kinase, Ka ' Lobster” value was determined as 2.3. In addition, the “Protein Kinase, Ka ' Bovine” value in test [2] is less than 0.005. In addition, the IC50 in test [4] is 140 µM. For the same compound, the IC50 in test [5] was more than 300 µM.
As to `CC(=NNC(N)=S)c1nc2c(=O)[nH]c(N)nc2n1[C@@H]1O[C@@H]2COP(=O)(O)O[C@H]2[C@H]1O` [Compound 15, 8-Acetylguanosine 3',5'-Cyclic Phosphate Thiosemicarbazone], the “Protein Kinase, Ka ' Lobster” value in test [1] was determined as 0.052. Further, the “Protein Kinase, Ka ' Bovine” value in test [2] was less than 0.005. The values for the IC50 in test [4] and in test [5] were 26 µM and 50 µM, respectively.
In the case of `CC(=NNC(N)=O)c1nc2c(=O)[nH]c(N)nc2n1[C@@H]1O[C@@H]2COP(=O)(O)O[C@H]2[C@H]1O` [Compound 16, 8-Acetylguanosine 3',5'-Cyclic Phosphate Semicarbazone], the “Protein Kinase, Ka ' Lobster” value in test [1] was found to be 0.031. Further, the “Protein Kinase, Ka ' Bovine” value in test [2] is less than 0.005. The IC50 in test [4] came out at 200 µM; in test [5], 125 µM.
The matching figures for `CC(=NNC(=O)Nc1ccccc1)c1nc2c(=O)[nH]c(N)nc2n1[C@@H]1O[C@@H]2COP(=O)(O)O[C@H]2[C@H]1O` [Compound 17, 8-Acetylguanosine 3',5'-Cyclic Phosphate 4-Phenylsemicarbazone]: 0.11, less than 0.01, 150 µM and 40 µM.
For `CC(=NNc1ccccc1)c1nc2c(=O)[nH]c(N)nc2n1[C@@H]1O[C@@H]2COP(=O)(O)O[C@H]2[C@H]1O` [Compound 18, 8-Acetylguanosine 3',5'-Cyclic Phosphate Phenylhydrazone] the same measures were 0.44, less than 0.005, 2000 µM and 100 µM.
With `CC(=O)c1nc2c(=O)[nH]cnc2n1[C@@H]1O[C@@H]2COP(=O)(O)O[C@H]2[C@H]1O` [Compound 20, 8-Acetylinosine 3',5'-Cyclic Phosphate], in test [1], the “specificity between cGMP-dependent and cAMP-dependent protein kinase (in words)” value is listed as “slightly greater specificity for the cAMP-dependent enzyme”; the “ability” value is on record as “slight activation”; the “Protein Kinase, Ka ' Lobster” value was 0.0041. Besides, in test [2], the “activation of the cAMP-dependent protein kinase (in words)” value is recorded as “slight activation” and the “Protein Kinase, Ka ' Bovine” value is on record as 0.022. The IC50 in test [4] worked out at 2000 µM. In addition, the IC50 in test [5] came to 1000 µM.
As for `O=C(c1ccccc1)c1nc2c(=O)[nH]cnc2n1[C@@H]1O[C@@H]2COP(=O)(O)O[C@H]2[C@H]1O` [Compound 21, 8-Benzoylinosine 3',5'-Cyclic Phosphate], in test [1], the “specificity between cGMP-dependent and cAMP-dependent protein kinase (in words)” value is reported as “slightly greater specificity for the cAMP-dependent enzyme”; the “ability” value was “slight activation”; the “Protein Kinase, Ka ' Lobster” value worked out at 0.011. Also, in test [2], the “activation of the cAMP-dependent protein kinase (in words)” value is reported as “slight activation” and the “Protein Kinase, Ka ' Bovine” value is on record as 0.070. Moreover, in test [4], the IC50 stood at 400 µM. Further, in test [5], the IC50 came to 70 µM.
Regarding `Cn1c(=O)c2[nH]cnc2n(C)c1=O` [theophylline, reference compound], the IC50 in test [4] was found to be 200 µM; in test [5], 100 µM.
